Source: patent US9555115B2, “Pharmaceutical composition for oral administration with improved dissolution and/or absorption” (Taiho Pharmaceutical Co., Ltd., priority 2012, dated 2017)

Assay: Compatibility test: related substances by HPLC after storage of mixed powders
Format: physicochemical
Source text: 4-((1-methylpyrrol-2-yl)-carbonyl)-N-(4-(4-morpholin-1-yl-carbonylpiperidin-1-yl)-phenyl)-1-piperazinecarboxamide (compound 1) monohydrate and organic acids were respectively weighed in an amount of 0.5 g. Compound 1 monohydrate was mixed with each organic acid in a mortar to produce individual mixed powders. Subsequently, compound 1 monohydrate alone was weighed in an amount of 0.5 g to produce a compound 1 monohydrate powder according to the same method as in the production of the organic acid mixed powders.
Each organic acid mixed powder and each compound 1 monohydrate powder were weighed in amounts of 0.04 g and 0.02 g, respectively, in sealed and open glass bottles. These bottles were allowed to stand at 60° C. and a relative humidity of 60% for two weeks, and then the production of a compound 1 monohydrate related substance was examined by HPLC to evaluate stability. In the evaluation, a high-speed liquid chromatograph (Shimadzu Corporation) was used.
Detector: Ultraviolet spectrophotometer (measurement wavelength: 260 nm)
Column: Phenylated silica gel for liquid chromatography (3.5 μm) (XBridge Phenyl, Japan Waters, Inc.) was placed in a stainless pipe with an inner diameter of 4.6 mm and a length of 10 cm.
Column temperature: Constant temperature of around 40° C.
Mobile phase A: Phosphate buffer solution (pH 7)
Mobile phase B: Acetonitrile
Transfer of mobile phase: The concentration gradient is regulated by changing the mixing ratio of mobile phases A and B as shown in Table 1.

With Cn1cccc1C(=O)N1CCN(C(=O)Nc2ccc(N3CCC(C(=O)N4CCOCC4)CC3)cc2)CC1.O [Compound 1 monohydrate, 4-((1-methylpyrrol-2-yl)-carbonyl)-N-(4-(4-morpholin-1-yl-carbonylpiperidin-1-yl)-phenyl)-1-piperazinecarboxamide] the “Initial value Related Substances” value (initial value, before storage) was 0.46 mass %, the “Open Related Substances” value (open glass bottle, 60° C., relative humidity 60%, two weeks) was 0.47 mass % and the “Sealed Related Substances” value (sealed glass bottle, 60° C., relative humidity 60%, two weeks) was 0.44 mass %.
